20 compounds from patent publication US20230303552A1, “ARYLSULFONYL DERIVATIVES AND THEIR USE AS MUSCARINIC ACETYLCHOLINE RECEPTOR M5 INHIBITORS” (Vanderbilt University, priority 2020, published 2023) can be followed below.

In this experiment the target is T1, human M5 receptors (hM5) (Homo sapiens, UniProt P08912).
T1 construct: expressed in transfected cells
T1 sequence (P08912 1-532): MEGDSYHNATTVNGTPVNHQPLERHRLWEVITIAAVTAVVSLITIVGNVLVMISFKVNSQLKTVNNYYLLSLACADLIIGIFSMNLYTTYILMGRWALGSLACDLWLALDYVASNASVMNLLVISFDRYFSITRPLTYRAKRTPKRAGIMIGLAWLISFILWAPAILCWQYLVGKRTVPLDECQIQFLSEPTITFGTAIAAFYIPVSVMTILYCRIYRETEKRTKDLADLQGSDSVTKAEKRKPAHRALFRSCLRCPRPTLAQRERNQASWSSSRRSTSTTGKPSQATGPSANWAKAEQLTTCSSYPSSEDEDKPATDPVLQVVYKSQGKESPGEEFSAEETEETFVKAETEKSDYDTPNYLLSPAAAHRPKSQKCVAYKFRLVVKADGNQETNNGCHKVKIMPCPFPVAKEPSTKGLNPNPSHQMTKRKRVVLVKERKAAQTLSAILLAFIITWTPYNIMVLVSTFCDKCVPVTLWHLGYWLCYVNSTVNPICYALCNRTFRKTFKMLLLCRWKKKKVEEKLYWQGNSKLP
In words: Cell-based functional calcium mobilization assay of mAChR M5 activity (inhibition of EC80 acetylcholine response) in CHO cells. The conditions noted are these: CHO cells stably expressing hM5; for IC50: calcium flux (Fluo-4), EC80 acetylcholine addition; for EC80 MIN: minimum of EC80 acetylcholine response, normalized to maximum acetylcholine response. How it is done: All functional cell-based assays were performed essentially as previously described (Marlo et al., Mol.Pharm. 2009, 75(3), 577-588; Brady et al., J. Pharm. & Exp. Ther. 2008, 327, 941-953). Initial, single point (10 µM) competitive and non-competitive inhibitor characterization was performed in stable Chinese Hamster Ovary (CHO) cell lines constitutively expressing human M5 receptors. These were plated at 15,000 cells per 20 µL per well in Greiner 384-well black-walled, TC-treated, clear-bottomed plates (Fisher) in Ham’s F12 medium supplemented with 10% FBS and 20 mM HEPES. Cells were incubated overnight at 37° C. under 5% CO2. The following day, medium was exchanged with assay buffer (Hank’s Balanced Salt Solution supplemented with 20 mM HEPES and 2.5 mM Probenecid, pH 7.4) leaving 20 µL of assay buffer in each well. This was followed by the addition of 20 µL of 2.3 µM of Fluo-4 AM (Invitrogen) in assay buffer (final concentration 1.15 µM). The cells were then incubated 50 minutes at 37° C. under 5% CO2. The assay buffer plus dye was then exchanged with fresh assay buffer leaving a volume of 20 µL in each well. Test compounds were diluted into assay buffer to a 2X (20 µM) concentration in 0.2% dimethylsulfoxide (DMSO) in columns 3 - 22 with matching DMSO concentration in columns 1, 2, 23, and […]; compounds were added to the assay for a final concentration of 10 µM and a final DMSO concentration of 0.1%. Acetylcholine (Sigma-Aldrich) was prepared to provide 5X concentrations of EC20, EC80, and ECmax in the triple-addition assay, providing a signal window to view agonism, potentiation, and inhibition of the acetylcholine response as well as a means to normalize to the maximum acetylcholine response.
Either an FDSS (Hamamatsu) or Panoptic (WaveFront Biosciences) kinetic imaging plate reader was used for assay execution and measurement of calcium flux. After establishing baseline fluorescence, test compounds (20 µL) were added to the cells using the reader’s integrated pipettor and allowed to equilibrate for 140 seconds before addition of the EC20 concentration of acetylcholine (10 µL) along with vehicle in selected DMSO-only wells in the outer two columns. The EC80 concentration of acetylcholine (10 µL) was added 125 seconds after the EC20 addition along with ECmax concentration in the wells receiving vehicle in the second addition. The raw fluorescence data from each well was normalized to the corresponding initial fluorescence reading (static ratio). The maximum fluorescence value following each addition was determined and the minimum value within that same timeframe was subtracted for each well then normalized to the average of the ECmax maximum-minimum response, providing a %AChmax value for each addition for each well. The single point values represent mean values determined within the EC80 addition timeframe obtained from at least three independent determinations performed in triplicate or greater (error bars represent +/- SEM) unless otherwise specified.
Further characterization of competitive and non-competitive inhibitor compounds (compound potency and mAChR subtype-selectivity) was performed on the FDSS with calcium mobilization assays performed as previously described (Marlo et al., 2009; Brady et al., 2008) and in a format similar to that described above using the same reagents. CHO cells stably expressing hM1, hM2/Gqi5, hM3, hM4/Gqi5, hM5, rM1, rM2/Gqi5, rM3, rM4/Gqi5, or rMs were plated in the manner described above. A ten-point concentration range of test compound was serial diluted in assay buffer to 2X final concentration and acetylcholine was diluted in assay buffer to 5X of the EC20 and EC80 concentrations, determined empirically and 5X maximal (2 mM final concentration) stock concentrations. FDSS protocols were carried out as described above; the static ratio was calculated and the minimum response subtracted from the maximum response within the timeframe of each addition. […]
Background: Calcium assays in cells follow changes in intracellular calcium, usually with a dye or a luminescent sensor.

Take `C[C@@H]1C[C@@H](C(=O)Nc2ccc3scnc3c2)CCN1S(=O)(=O)c1cccc2nsnc12` (racemic) [Compound 121, trans-(rac)-1-(benzo[c][1,2,5]thiadiazol-4-ylsulfonyl-N-(benzo[d]thiazol-5-yl)-2-methylpiperidine-4-carboxamide]: the half-maximal inhibitory concentration (IC50) is 449 nM and the “EC80 MIN” value was 3%.

As to `C[C@@H]1C[C@@H](C(=O)Nc2ccc3scnc3c2)CCN1S(=O)(=O)c1ccc2c(c1)CCO2` (racemic) [Compound 122, trans-(rac)-N-(benzo[d]thiazol-5-yl)-1-((2.3-dihydrobenzofuran-5-yl)sulfonyl)-2-methylpiperidine-4-carboxamide], the 50% inhibitory concentration (IC50) was found to be 94 nM and the “EC80 MIN” value came to 3%.

As for `Cc1nn(C)cc1S(=O)(=O)N1CC[C@H](C(=O)Nc2ccc3scnc3c2)C[C@H]1C` (racemic) [Compound 123, trans-(rac)-N-(benzo[d]thiazol-5-yl)-1-((1,3-dimethyl-1H-pyrazol-4-yl)sulfonyl)-2-methylpiperidine-4-carboxamide], the IC50 came out at 174 nM and the “EC80 MIN” value was determined as 3%.

With `CC1(C)COc2ccc(S(=O)(=O)N3CC4CC4(C(=O)Nc4ccc5scnc5c4)C3)cc21` (racemic) [Compound 130, (rac)-N-(benzo[d]thiazol-5-yl)-3-((3,3-dimethyl-2,3-dihydrobenzofuran-5-yl)sulfonyl)-3-azabicyclo[3.1.0)hexane-1-carboxamide], the IC50 was greater than 10000 nM and the “EC80 MIN” value amounted to 62%.

As to `CC1COc2ccc(S(=O)(=O)N3CCC(C(=O)Nc4ccc5scnc5c4)CC3)cc21` (racemic) [Compound 131, (rac)-N-(benzo[d]thiazol-5-yl)-1-((3-methyl-2,3-dihydrobenzofuran-5-yl)sulfonyl)piperidine-4-carboxamide], the IC50 came out at 109 nM and the “EC80 MIN” value is 3%.

As for `C[C@@H]1C[C@@H](C(=O)Nc2ccc3scnc3c2)CCN1S(=O)(=O)c1ccc2ncsc2c1` (racemic) [Compound 134, trans-(rac)-N-(benzo[d]thiazol-5-yl)-1-(benzo[d]thiazol-6-ylsulfonyl)-2-methylpiperidine-4-carboxamide], the IC50 amounted to 580 nM and the “EC80 MIN” value is 3%.

For the compound `Cc1cc2c(cc1S(=O)(=O)N1CCC(C(=O)Nc3ccc4scnc4c3)CC1)C(C)CO2` (racemic) [Compound 145, (rac)-N-(benzo[d]thiazol-5-yl)-1-((3,6-dimethyl-2,3-dihydrobenzofuran-5-yl)sulfonyl)piperidine-a-carboxamide], the IC50 came out at 1370 nM and the “EC80 MIN” value is listed as 3%.

With `Cn1ncc(S(=O)(=O)N2CC[C@H](C(=O)Nc3ccc4scnc4c3)[C@@H](F)C2)c1Cl` (racemic) [Compound 159, trans-(rac)-N-(benzo[d]thiazol-5-yl)-1-((5-chloro-1-methyl-1H-pyrazol-4-yl)sulfonyl)-3-fluoropiperidine-4-carboxamide], the half-inhibitory concentration (IC50) was 10 nM and the “EC80 MIN” value is 2%.

On to `Cc1ncc(S(=O)(=O)N2CC[C@H](C(=O)Nc3ccc4scnc4c3)[C@@H](F)C2)s1` (racemic) [Compound 160, trans-(rac)-N-(benzo[d]thiazol-5-yl)-3-fluoro-1-((2-methylthiazol-5-yl)sulfonyl)piperidine-4-carboxamide], for which the IC50 was found to be 13 nM and the “EC80 MIN” value worked out at 2%.

With `O=C(Nc1ccc2scnc2c1)C1CCN(S(=O)(=O)c2ccc(Cl)s2)CC1` [Compound 1, N-(benzo[d]thiazol-5-yl)-1-((5-chlorothiophen-2-yl)sulfonyl)piperidine-4-carboxamide], the IC50 came to 2740 nM and the “EC80 MIN” value turned out to be 3%.

For `O=C(Nc1ccc2scnc2c1)C1CCN(S(=O)(=O)c2ccc3c(c2)CCO3)CC1` [Compound 2, N-(benzo[d]thiazol-5-yl)-1-((2,3-dihydrobenzofuran-5-yl)sulfonyl)piperidine-4-carboxamide], the IC50 came out at 72 nM and the “EC80 MIN” value turned out to be 2%.

Regarding `O=C(Nc1ccc2scnc2c1)C1CCN(S(=O)(=O)c2ccc3ncsc3c2)CC1` [Compound 3, N-(benzo[d]thiazol-5-yl)-1-(benzo[d]thiazol-6-ylsulfonyl)piperidine-4-carboxamide], the 50% inhibitory concentration (IC50) was found to be 670 nM and the “EC80 MIN” value came to 5%.

Turning to `O=C(Nc1ccc2scnc2c1)C1CCN(S(=O)(=O)c2ccc3ncccc3c2)CC1` [Compound 4, N-(benzo[d]thiazol-5-yl)-1-(quinolin-6-ylsulfonyl)piperidine-4-carboxamide], the IC50 stood at 959 nM and the “EC80 MIN” value was 2%.

Regarding `Cc1nn(C)cc1S(=O)(=O)N1CCC(C(=O)Nc2ccc3scnc3c2)CC1` [Compound 5, N-(benzo[d]thiazol-5-yl)-1-((1,3-dimethyl-1H-pyrazol-4-yl)sulfonyl)piperidine-4-carboxamide], the half-maximal inhibitory concentration (IC50) came to 304 nM and the “EC80 MIN” value is 2%.

On to `O=C(Nc1ccc2scnc2c1)C1CCN(S(=O)(=O)c2ccc(Cl)nc2)CC1` [Compound 7, N-(benzo[d]thiazol-5-yl)-1-((6-chloropyridin-3-yl)sulfonyl)piperidine-4-carboxamide], for which the 50% inhibitory concentration (IC50) was 184 nM and the “EC80 MIN” value amounted to 4%.

`O=C(Nc1ccc2scnc2c1)C1CCN(S(=O)(=O)c2ccsc2)CC1` [Compound 8, N-(benzo[d]thiazol-5-yl)-1-(thiophen-3-ylsulfonyl)piperidine-4-carboxamide]: the half-inhibitory concentration (IC50) was greater than 10000 nM and the “EC80 MIN” value was 23%.

Regarding `N#Cc1cc(S(=O)(=O)N2CCC(C(=O)Nc3ccc4scnc4c3)CC2)ccc1Cl` [Compound 9, N-(benzo[d]thiazol-5-yl)-1-((4-chloro-3-cyanophenyl)sulfonyl)piperidine-4-carboxamide], the concentration for half-maximal inhibition (IC50) is greater than 10000 nM and the “EC80 MIN” value came out at 38%.

For the compound `COc1ccc(S(=O)(=O)N2CCC(C(=O)Nc3ccc4scnc4c3)CC2)cn1` [Compound 10, N-(benzo[d]thiazol-5-yl)-1-((6-methoxypyridin-3-yl)sulfonyl)piperidine-4-carboxamide], the IC50 worked out at 1320 nM and the “EC80 MIN” value amounted to 3%.

In the case of `O=C(Nc1ccc2scnc2c1)C1CCN(S(=O)(=O)c2ccc(C(F)(F)F)nc2)CC1` [Compound 11, N-(benzo[d]thiazol-5-yl)-1-((6-(trifluoromethyl)pyridin-3-yl)sulfonyl)piperidine-4-carboxamide], the IC50 was greater than 10000 nM and the “EC80 MIN” value is given as 52%.

Consider `O=C(Nc1ccc2[nH]cnc2c1)C1CCN(S(=O)(=O)c2ccc3c(c2)CCO3)CC1` [Compound 13, N-(1H-benzo[d]imidazol-5-yl)-1-((2,3-dihydrobenzofuran-5-yl)sulfonyl)piperidine-4-carboxamide], for which the half-maximal inhibitory concentration (IC50) was greater than 10000 nM and the “EC80 MIN” value is 22%.

The IC50 is the midpoint of a concentration-inhibition curve.
